Source: patent publication US12403112B2, “Agent for preventing, ameliorating, or treating periodontal disease” (WAKUNAGA PHARMACEUTICAL CO., LTD., priority 2019, dated 2025)

How the values were obtained:
Assay type in all cases: cell-based
[1] = system: IL-6 release from human gingival epithelial Ca9-22 cells; assay: Effect of reducing release of IL-6 induced by TNF-α (ELISA); settings: co-treatment with TNF-α, 6 hours, FIGS. 4 and 5
Experimental: Test solutions for evaluating the biological activities were prepared as follows. In evaluating the biological activities, all test solutions were prepared at the time of use. • (a) Approximately 1 mg of SAC and […] (cis:trans=15:85) were each precisely weighed and dissolved in 0.6 mL of purified water (10 mM). This solution was used as a stock solution and diluted appropriately to be subjected to the test. • (b) SAMC was dissolved in a culture medium for cell culture (containing 10% bovine serum albumin, […] penicillin, and 100 μg/mL streptomycin) (1 mM). This solution was used as a stock solution and diluted to be subjected to the test. (2) Cells for Evaluation Test Test cells (human gingival epithelial Ca9-22 cells) were purchased from the National Institute of Biomedical Innovation, Health and Nutrition. Immediately after purchasing, the culturing was initiated (5% CO2, 37° C.) Subculturing was carried out two or three times per week. […] IL-6 ELISA Ready-SET-Go! Kit was purchased from eBioscience, Inc. to measure the amount of IL-6 produced. […] A horseradish peroxidase (HRP)-labeled secondary antibody and chromogenic substrate were added thereto and then the absorbance was measured by using a plate reader. […] After completion of culturing, the supernatant was collected and the concentration of IL-6 was measured by ELISA.

[2] = system: LL-37 gene in human gingival epithelial Ca9-22 cells; assay: Effect of promoting expression of LL-37 gene (quantitative real-time PCR); settings: treatment for 24 hours, absence of HKPG, compared to untreated, FIG. 1
Experimental: (§1) Test solutions for evaluating the biological activities were prepared as follows. In evaluating the biological activities, all test solutions were prepared at the time of use. • (a) Approximately 1 mg of SAC and S1PC (cis:trans=15:85) were each precisely weighed and dissolved in 0.6 mL of purified water (10 mM). This solution was used as a stock solution and diluted appropriately to be subjected to the test. • (b) SAMC was dissolved in a culture medium for cell culture (containing 10% bovine serum albumin, […] penicillin, and 100 μg/mL streptomycin) (1 mM). This solution was used as a stock solution and diluted to be subjected to the test. (2) Cells for Evaluation Test
Test cells (human gingival epithelial Ca9-22 cells) were purchased from the National Institute of Biomedical Innovation, Health and Nutrition. […]
(§2) Using a reverse transcription kit (PrimeScript RT reagent kit with gDNA Eraser, RR047A, TAKARA), degradation of DNA remaining in total RNA and reverse transcription reaction from RNA to complementary DNA (cDNA) were carried out. Next, cDNA derived from the target gene was amplified by quantitative real-time polymerase chain reaction (PCR) using primers specific for LL-37 or hBD3 gene. The relative expression levels of LL-37 and hBD3 genes were calculated using beta-actin as an internal reference gene.

[3] = system: hBD3 gene in human gingival epithelial Ca9-22 cells; assay: Effect of promoting expression of hBD3 gene (quantitative real-time PCR)
Experimental: as §1
Test cells (human gingival epithelial Ca9-22 cells) were purchased from the National Institute of Biomedical Innovation, Health and Nutrition. Immediately after purchasing, the culturing was initiated (5% CO2, 37° C.) Subculturing was carried out two or three times per week.
The Ca9-22 cells were prepared to 1×10^5 cells/mL in a 10% serum-containing medium, seeded in a 12-well plate at 1 mL respectively, and cultured for 24-48 hours. Assay was carried out when the percentage of cells in each well reached nearly 100%. In the presence or absence of heat-sterilized Porphyromonas gingivalis (HKPG), a reagent was added and the culturing was continued for 24 hours. After completion of culturing, the culture supernatant was removed and […] was added, followed by treatment at room temperature for 5 minutes. RIPA buffer was collected from each well into tubes and chloroform was added (40 μL/tube), followed by treatment at room temperature for 2-3 minutes. After centrifugation (13,000 g, 5 min, 4° C.), the supernatant was transferred to a new tube and 2-propanol was added thereto (80 μL/tube), followed by treatment at room temperature for 10 minutes. After centrifugation (13,000 g, 10 min, 4° C.), the supernatant was removed, and 75% ethanol was added to the precipitate (200 μL/tube), and further centrifugation (13,000 g, 10 min, 4° C.) was carried out. After centrifugation (13,000 g, 10 min, 4° C.), the supernatant was removed, and the dried precipitate (total RNA) was dissolved in sterile water and cryopreserved at −80° C. until use.
as §2

[4] = system: ICAM-1 protein in human gingival epithelial Ca9-22 cells; assay: Effect of down-regulating expression of ICAM-1 induced by TNF-α (Western blot); settings: co-treatment with TNF-α, 24 hours, FIG. 3
Experimental: Test solutions for evaluating the biological activities were prepared as follows. In evaluating the biological activities, all test solutions were prepared at the time of use. • (a) Approximately 1 mg of SAC and […] (cis:trans=15:85) were each precisely weighed and dissolved in 0.6 mL of purified water (10 mM). This solution was used as a stock solution and diluted appropriately to be subjected to the test. • (b) SAMC was dissolved in a culture medium for cell culture (containing 10% bovine serum albumin, […] penicillin, and 100 μg/mL streptomycin) (1 mM). This solution was used as a stock solution and diluted to be subjected to the test. (2) Cells for Evaluation Test Test cells (human gingival epithelial Ca9-22 cells) were purchased from the National Institute of Biomedical Innovation, Health and Nutrition. Immediately after purchasing, the culturing was initiated (5% CO2, 37° C.) Subculturing was carried out two or three times per week. […] A portion of the above protein supernatant was collected and the total protein concentration was calculated by BCA method. […] After reaction treatment, the proteins were washed with Tris-buffered saline three times, an HRP substrate was added thereto, and the luminescence intensity was detected by a luminoimage analyzer.

[5] = 300 μM, presence of 10^7/mL HKPG (heat-sterilized Porphyromonas gingivalis), FIG. 2
[6] = treatment for 24 hours, absence of HKPG

SMILES	amount of released IL-6 induced by TNF-α [1]	expression level of LL-37 gene [2]	expression level of hBD3 gene [3, 5]	expression level of hBD3 gene [3, 6]	expression of ICAM-1 protein induced by TNF-α [4]
C=CCSSCC(N)C(=O)O (stereo not drawn) [SAMC, S-allylmercaptocysteine]	concentration-dependently reduced	–	–	–	–
C=CCSC[C@H](N)C(=O)O [SAC, S-allylcysteine]	concentration-dependently reduced	significantly increased	significantly increased	no change	–
CC=CSC[C@H](N)C(=O)O [S1PC, S-1-propenylcysteine]	–	significantly increased	significantly increased	no change	concentration-dependently down-regulated
